Data taken from patent US20160303081A1, “INHIBITORS OF BETA1-INTEGRIN AND METHODS OF USE” (The Texas A&M University System, priority 2015, published 2016).

Assays:
[1] = tested on: MDA-MB-231 cells; experiment: Migration/invasion of MDA-MB-231 cells; assay type: cell-based, human; conditions: MDA-MB-231 cells (FIG. 15)
From the text: FIG. 15 illustrates that the NR4A1 antagonist DIM-C-pPhCO2ME inhibits migration/invasion of MDA-MB-231 cells.
(§1) Assessing downstream effects of the above β1-integrin inhibition, knockdown of NR4A1 (TR3) by RNA interference decrease migration and invasion performance of SKBr3 and MDA-MB-231 cells (FIG. 14). […] Moreover, the effects of other NR4A1 antagonists on migration and invasion of the breast cancer cells were investigated.

[2] = target: ligand binding domain (LBD) of NR4A1 (Homo sapiens, UniProt P22736); experiment: Fluorescence quenching binding assay with His-NR4A1 (LBD); conditions: His-tagged ligand binding domain of NR4A1
From the text: (§2) These compounds bind the receptor and are receptor antagonists. Thus, C-DIMs are the first NR4A1 antagonists that inhibit NR4A1-mediated pro-oncogenic genes/pathways. The transactivation and NR4A1 binding of the p-hydroxyphenyl (DIM-C-pPhOH) analog was initially investigated.
Using a fluorescent binding assay, a library of C-DIM compounds were screened. Specifically, 14 different C-DIM analogs with pPhX on the bridging carbon (i.e., as R8) were screened, where X was CF3, Br, F, t-Butyl, OCH3, N-dimethylamino, H, OH, C6H5, CN, CH3, Cl, I and CO2Me. Each analog bound the ligand binding domain of NR4A1 and KD values for binding varied from 0.1-0.71 μM.

[3] = tested on: SKBR3 cells; experiment: Migration/invasion of SKBR3 cells; assay type: cell-based, human; conditions: SKBR3 cells (FIGS. 16, 17)
From the text: FIG. 16 illustrates that the NR4A1 antagonist DIM-C-pPhCO2ME inhibits migration/invasion of SKBR3 cells.
as §1

[4] = target: T1, NR4A1 (Homo sapiens, UniProt P22736); experiment: GAL4-NR4A1 / UAS5-luc transactivation reporter assay in Panc1 cells; assay type: cell-based; conditions: Panc1 cells transfected with GAL4-NR4A1 (full length) and UAS5-luc reporter; FIG. 2A/2B
T1 construct: Panc1 cells were transfected with a GAL4-NR4A1 (full length) construct; expressed in transfected cells; host or cells: Panc1
From the text: as §2

[5] = tested on: pancreatic cancer cells; experiment: Adhesion to human fibronectin-coated plates, pancreatic cancer cells; assay type: cell-based; conditions: 20 μM, p<0.001 / p<0.005 (FIG. 9)
Experimental: Significant inhibition with p<0.001 indicated with “#” and significant inhibition with p<0.005 indicated with “***”.
(§3) Discovery of NR4A1-regulated pro-invasion/migration genes was determined using Illumina Human HT-12V4 Beadchip arrays (FIGS. 5A and 5B). Knockdown of NR4A1 in Panc1 cells decreased expression of β1-integrin which is known to play an important role in cell migration and invasion. […] The loss of α5-integrin may be indirect since it was previously reported that β1-integrin silencing by RNAi decreased α5-integrin. […] Decreased adhesion to fibronectin-coated plates was also observed in pancreatic cancer cells treated with DIM-C-pPhOH (FIG. 9), confirming that siNR4A1 and NR4A1 antagonists decrease expression of β1-integrin. This represents a novel approach for targeting this pro-oncogenic factor in pancreatic cancer.

[6] = tested on: β1-integrin; experiment: β1-integrin expression, SKBR3 breast cancer cells; assay type: cell-based, human; conditions: SKBR3 cells (FIGS. 11, 12)
[7] = tested on: L3.6pL orthotopic xenograft; conditions: athymic nude mice, orthotopic model; previous studies; cited from earlier work
[8] = tested on: β1-integrin; experiment: β1-integrin expression, RKO colon cancer cells; assay type: cell-based; conditions: RKO colon cancer cells (FIG. 13)
[9] = tested on: pancreatic cancer cells; experiment: Boyden Chamber invasion assay, pancreatic cancer cells; assay type: cell-based; conditions: 20 μM, p<0.001 (FIGS. 4A, 4B)
From the text: FIGS. 4A and 4B illustrate that DIM-C-pPhOH decreases pancreatic cancer cell invasion in a Boyden Chamber assay. Significant inhibition with p<0.001 indicated with “#”.
Previous studies indicate that in pancreatic cancers, NR4A1 regulates pro-survival genes (e.g. survivin) through an Sp1/p300/NR4A1 complex in which Sp1 binds promoter DNA. […] A third pathway involves activation of mTOR which is due to inactivation of p53 by binding NR4A1 and this pathway is only observed in cancer cell lines and tumors expressing wild-type p53.

[10] = tested on: L3.6pL orthotopic xenograft; experiment: L3.6pL orthotopic xenograft in athymic nude mice, tumor lysates by Western blot; assay type: in vivo; conditions: 30 mg/kg/d, compared to corn oil control; lysate from two animals (FIG. 10)
From the text: The tumor lysate from two animals is shown.

[11] = tested on: pancreatic cancer cells; conditions: stated with previous studies; cited from earlier work
[12] = tested on: β1-integrin; experiment: β1-integrin expression, MCF-7 breast cancer cells; assay type: cell-based; conditions: MCF-7 cells
[13] = tested on: β1-integrin; experiment: β1-integrin expression, MDA-MB-231 breast cancer cells; assay type: cell-based, human; conditions: MDA-MB-231 cells (FIGS. 11, 12)
[14] = tested on: β1-integrin; experiment: Expression of β1-integrin and related gene products, pancreatic cancer cells; assay type: cell-based; conditions: 20 μM (FIG. 7)
Experimental: as §3

[15] = tested on: β1-integrin; experiment: β1-integrin expression, SW480 colon cancer cells; assay type: cell-based; conditions: SW480 colon cancer cells (FIG. 13)

T1 sequence (P22736 whole entry, the tested form may be a part): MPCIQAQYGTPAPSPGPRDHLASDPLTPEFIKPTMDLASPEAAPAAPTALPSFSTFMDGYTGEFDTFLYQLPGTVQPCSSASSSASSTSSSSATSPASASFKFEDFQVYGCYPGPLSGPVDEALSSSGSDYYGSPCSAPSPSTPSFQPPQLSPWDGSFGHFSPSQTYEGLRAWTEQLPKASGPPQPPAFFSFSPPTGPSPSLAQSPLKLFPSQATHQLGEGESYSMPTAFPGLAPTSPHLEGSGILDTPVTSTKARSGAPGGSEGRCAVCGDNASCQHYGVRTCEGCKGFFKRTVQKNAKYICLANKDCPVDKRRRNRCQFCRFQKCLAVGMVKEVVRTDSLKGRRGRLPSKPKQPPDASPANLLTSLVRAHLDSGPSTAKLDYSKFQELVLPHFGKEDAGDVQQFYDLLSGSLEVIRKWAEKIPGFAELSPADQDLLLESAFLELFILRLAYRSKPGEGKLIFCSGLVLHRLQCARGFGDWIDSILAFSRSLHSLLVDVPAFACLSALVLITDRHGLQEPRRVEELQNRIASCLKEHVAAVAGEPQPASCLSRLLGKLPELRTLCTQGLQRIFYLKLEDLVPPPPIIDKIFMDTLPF
Chain of ligand binding domain (LBD) of NR4A1 (P22736 360-595 limits assumed): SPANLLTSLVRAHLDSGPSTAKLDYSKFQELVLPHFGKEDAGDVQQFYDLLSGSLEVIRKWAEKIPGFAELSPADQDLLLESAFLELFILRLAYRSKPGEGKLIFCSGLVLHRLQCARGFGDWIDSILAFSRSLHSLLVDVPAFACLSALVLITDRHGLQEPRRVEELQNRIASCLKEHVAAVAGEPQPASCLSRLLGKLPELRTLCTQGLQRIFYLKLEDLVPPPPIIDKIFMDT

Row | Structure (SMILES) | migration and invasion [1] | binding to His-NR4A1 (LBD), fluorescence quenching [2] | migration and invasion [3] | luciferase activity (NR4A1-dependent transactivation) [4] | cell adhesion to human fibronectin-coated plates [5] | β1-integrin expression [6] | tumor growth [7] | β1-integrin expression [8] | invasion [9] | expression of α5-integrin in tumor lysates [10] | expression of β1-integrin in tumor lysates [10] | apoptosis [11] | pancreatic cancer cell growth [11] | β1-integrin expression [12] | β1-integrin expression [13] | β1-integrin and related gene products [14] | β1-integrin expression [15]
1 | COC(=O)c1ccc(C(c2c[nH]c3ccccc23)c2c[nH]c3ccccc23)cc1 [DIM-C-pPhCO2Me] | inhibits migration and invasion | binds the LBD of NR4A1 | inhibits migration and invasion | inhibits NR4A-dependent transactivation | – | – | – | – | – | – | – | – | – | – | – | – | –
2 | Oc1ccc(C(c2c[nH]c3ccccc23)c2c[nH]c3ccccc23)cc1 [DIM-C-pPhOH, 1,1-bis(3′-indolyl)-1-(p-hydroxyphenyl)methane] | – | quenches fluorescence | – | decreased luciferase activity | decreases pancreatic cancer cell adhesion | decreased β1-integrin expression | inhibits tumor growth | decreases β1-integrin expression | decreased invasion | decreases expression | decreases expression | induce apoptosis | inhibit pancreatic cancer cell growth | decreased β1-integrin expression | decreased β1-integrin expression | decreases β1-integrin and related gene products | decreases β1-integrin expression
